According to ChEMBL document CHEMBL1201862, “PubChem BioAssay data set” (2004):
Active and inactive are the calls of the source.

What was measured:
[1] = MDA-MB-231 cell growth inhibition, dose response, cytotoxicity control for RAD54 inhibitor project, CellTiter-Glo luminescence, cherry-pick (AID 651692); assay type: functional, cell-based
[2] = target: T1, Tyrosyl-DNA phosphodiesterase 2 (Homo sapiens, UniProt O95551); assay: human TDP2 enzyme inhibitors, dose response, biochemical, epi absorbance, IC50 (AID 743297)
T1 sequence (O95551 whole entry): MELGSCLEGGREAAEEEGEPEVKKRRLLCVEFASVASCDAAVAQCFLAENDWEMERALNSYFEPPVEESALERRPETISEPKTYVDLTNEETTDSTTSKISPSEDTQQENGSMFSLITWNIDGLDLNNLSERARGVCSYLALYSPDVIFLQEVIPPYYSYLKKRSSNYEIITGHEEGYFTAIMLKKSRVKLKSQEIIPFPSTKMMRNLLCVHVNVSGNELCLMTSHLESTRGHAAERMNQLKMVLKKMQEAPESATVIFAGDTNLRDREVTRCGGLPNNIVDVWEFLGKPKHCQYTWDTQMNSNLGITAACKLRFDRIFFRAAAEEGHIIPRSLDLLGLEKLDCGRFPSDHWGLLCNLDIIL

[3] = target: Dual specificity protein phosphatase 3 (Homo sapiens, UniProt P51452); assay: VHR1 phosphatase inhibitors, biochemical (AID 1878)
[4] = target: 1-phosphatidylinositol 4,5-bisphosphate phosphodiesterase gamma-1 (Homo sapiens, UniProt P19174); assay: Counterscreen for inhibitors of phospholipase C isozymes (PLC-B3): Fluorescence-based biochemical high throughput dose response assay to identify inhibitors of phospholipase C isozymes (PLC-gamma1).
[5] = target: T2, Caspase-6 (Homo sapiens, UniProt P55212); assay: human caspase-6 inhibitors, dose response, biochemical, VEID-R110 fluorescence, cherry-pick (AID 720632)
T2 sequence (P55212 whole entry): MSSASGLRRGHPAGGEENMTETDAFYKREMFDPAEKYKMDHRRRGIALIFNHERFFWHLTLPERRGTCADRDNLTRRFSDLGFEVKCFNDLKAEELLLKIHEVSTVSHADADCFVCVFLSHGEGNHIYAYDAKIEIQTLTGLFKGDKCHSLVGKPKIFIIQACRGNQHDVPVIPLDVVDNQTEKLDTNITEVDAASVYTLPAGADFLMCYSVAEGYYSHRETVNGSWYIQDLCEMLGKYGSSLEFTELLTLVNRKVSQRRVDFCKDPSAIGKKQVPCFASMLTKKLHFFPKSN

[6] = target: Dual specificity protein phosphatase 6 (Rattus norvegicus, UniProt Q64346); assay: MKP-3 phosphatase inhibitors, primary screen, biochemical, rat enzyme, in vitro (AID 425)
[7] = target: T3, Sentrin-specific protease 7 (Homo sapiens, UniProt Q9BQF6); assay type: functional;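 note: Luminescence-based dose-response confirmation of ultra-high-throughput screening hits, measuring inhibition of SENP7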
T3 sequence (Q9BQF6 whole entry): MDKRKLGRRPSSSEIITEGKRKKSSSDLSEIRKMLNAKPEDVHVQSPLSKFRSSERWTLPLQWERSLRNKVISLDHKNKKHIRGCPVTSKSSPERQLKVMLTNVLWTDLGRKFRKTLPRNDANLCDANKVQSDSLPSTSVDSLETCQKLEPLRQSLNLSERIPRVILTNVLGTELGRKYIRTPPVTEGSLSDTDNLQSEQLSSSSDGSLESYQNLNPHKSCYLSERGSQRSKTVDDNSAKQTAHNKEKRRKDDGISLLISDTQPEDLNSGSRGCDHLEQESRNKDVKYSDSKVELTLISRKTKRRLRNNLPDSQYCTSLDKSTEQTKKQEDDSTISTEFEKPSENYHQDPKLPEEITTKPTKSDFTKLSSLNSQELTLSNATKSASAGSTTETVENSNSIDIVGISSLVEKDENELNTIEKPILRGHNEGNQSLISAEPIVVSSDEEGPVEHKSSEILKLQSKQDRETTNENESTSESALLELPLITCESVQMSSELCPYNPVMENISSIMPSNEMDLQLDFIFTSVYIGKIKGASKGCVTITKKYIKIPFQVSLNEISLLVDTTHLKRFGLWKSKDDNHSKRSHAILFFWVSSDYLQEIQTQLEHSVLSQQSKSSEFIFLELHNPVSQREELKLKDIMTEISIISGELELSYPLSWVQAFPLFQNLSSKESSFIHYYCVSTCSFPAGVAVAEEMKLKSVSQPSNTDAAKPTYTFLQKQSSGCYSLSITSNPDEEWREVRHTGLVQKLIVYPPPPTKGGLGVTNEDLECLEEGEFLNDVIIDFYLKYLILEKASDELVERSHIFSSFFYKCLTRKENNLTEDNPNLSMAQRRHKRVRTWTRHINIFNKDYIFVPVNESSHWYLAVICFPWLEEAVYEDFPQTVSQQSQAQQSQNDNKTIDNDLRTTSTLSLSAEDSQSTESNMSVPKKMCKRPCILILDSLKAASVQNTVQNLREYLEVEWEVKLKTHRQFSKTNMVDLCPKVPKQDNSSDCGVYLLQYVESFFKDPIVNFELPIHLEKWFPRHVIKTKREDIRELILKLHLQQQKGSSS

[8] = target: Serine/threonine-protein kinase MRCK alpha (Homo sapiens, UniProt Q5VT25); assay type: functional
[9] = target: Serine/threonine-protein kinase Chk2 (Homo sapiens, UniProt O96017); assay type: functional;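 note: CHEK2 entry within a kinome-wide screening panel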
[10] = target: STE20-like serine/threonine-protein kinase (Homo sapiens, UniProt Q9H2G2); assay type: functional
[11] = target: Calcium/calmodulin-dependent protein kinase type II subunit gamma (Homo sapiens, UniProt Q13555); assay type: functional
[12] = target: MAP kinase-interacting serine/threonine-protein kinase 2 (Homo sapiens, UniProt Q9HBH9); assay type: functional
[13] = target: Homeodomain-interacting protein kinase 4 (Homo sapiens, UniProt Q8NE63); assay type: functional
[14] = target: LIM domain kinase 1 (Homo sapiens, UniProt P53667); assay: Navigating the Kinome. Panel member name: LIMK1; assay type: functional
[15] = target: Dual specificity protein kinase CLK4 (Homo sapiens, UniProt Q9HAZ1); assay type: functional
[16] = target: BDNF/NT-3 growth factors receptor (Homo sapiens, UniProt Q16620); assay type: functional;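 note: NTRK2 measured as one member of a broad kinome-wide kinase profiling panel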
[17] = target: Tyrosine-protein kinase Fyn (Homo sapiens, UniProt P06241); assay type: functional
[18] = target: Protein kinase C gamma type (Homo sapiens, UniProt P05129); assay type: functional
[19] = target: Calcium/calmodulin-dependent protein kinase type II subunit beta (Homo sapiens, UniProt Q13554); assay type: functional
[20] = target: Mitogen-activated protein kinase 1 (Homo sapiens, UniProt P28482); assay type: functional
[21] = target: Calcium/calmodulin-dependent protein kinase type II subunit delta (Homo sapiens, UniProt Q13557); assay type: functional

STE20-like serine/threonine-protein kinase, sequence (Q9H2G2 whole entry): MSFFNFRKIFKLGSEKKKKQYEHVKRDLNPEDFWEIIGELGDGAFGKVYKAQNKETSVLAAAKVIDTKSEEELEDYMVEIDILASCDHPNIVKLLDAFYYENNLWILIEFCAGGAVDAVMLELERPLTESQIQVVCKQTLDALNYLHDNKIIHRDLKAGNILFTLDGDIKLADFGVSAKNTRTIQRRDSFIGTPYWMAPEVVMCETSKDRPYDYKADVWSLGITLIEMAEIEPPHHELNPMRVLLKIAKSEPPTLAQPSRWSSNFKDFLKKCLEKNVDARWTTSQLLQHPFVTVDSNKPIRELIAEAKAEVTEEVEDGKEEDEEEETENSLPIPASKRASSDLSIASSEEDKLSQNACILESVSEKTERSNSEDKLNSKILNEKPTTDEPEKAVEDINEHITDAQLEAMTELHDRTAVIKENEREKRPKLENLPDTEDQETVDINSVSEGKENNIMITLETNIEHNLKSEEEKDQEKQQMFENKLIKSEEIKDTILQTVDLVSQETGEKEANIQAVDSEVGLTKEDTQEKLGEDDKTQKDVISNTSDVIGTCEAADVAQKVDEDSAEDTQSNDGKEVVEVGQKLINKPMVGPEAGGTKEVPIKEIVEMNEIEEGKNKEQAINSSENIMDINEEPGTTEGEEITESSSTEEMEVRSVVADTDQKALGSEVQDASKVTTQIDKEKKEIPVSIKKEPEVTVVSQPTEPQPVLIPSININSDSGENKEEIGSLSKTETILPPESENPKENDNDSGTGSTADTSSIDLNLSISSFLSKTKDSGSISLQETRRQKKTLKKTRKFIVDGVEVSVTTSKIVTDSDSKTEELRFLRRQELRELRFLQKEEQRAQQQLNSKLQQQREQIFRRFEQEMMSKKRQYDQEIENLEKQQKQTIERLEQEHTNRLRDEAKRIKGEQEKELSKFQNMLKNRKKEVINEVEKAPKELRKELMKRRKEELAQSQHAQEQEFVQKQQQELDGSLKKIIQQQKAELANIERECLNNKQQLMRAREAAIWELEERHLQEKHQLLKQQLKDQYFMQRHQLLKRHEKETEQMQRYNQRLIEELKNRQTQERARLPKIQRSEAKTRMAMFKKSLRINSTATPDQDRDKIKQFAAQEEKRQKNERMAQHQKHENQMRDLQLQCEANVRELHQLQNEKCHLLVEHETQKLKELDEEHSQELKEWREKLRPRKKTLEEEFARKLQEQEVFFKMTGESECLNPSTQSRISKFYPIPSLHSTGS
Dual specificity protein phosphatase 6, sequence (Q64346 whole entry): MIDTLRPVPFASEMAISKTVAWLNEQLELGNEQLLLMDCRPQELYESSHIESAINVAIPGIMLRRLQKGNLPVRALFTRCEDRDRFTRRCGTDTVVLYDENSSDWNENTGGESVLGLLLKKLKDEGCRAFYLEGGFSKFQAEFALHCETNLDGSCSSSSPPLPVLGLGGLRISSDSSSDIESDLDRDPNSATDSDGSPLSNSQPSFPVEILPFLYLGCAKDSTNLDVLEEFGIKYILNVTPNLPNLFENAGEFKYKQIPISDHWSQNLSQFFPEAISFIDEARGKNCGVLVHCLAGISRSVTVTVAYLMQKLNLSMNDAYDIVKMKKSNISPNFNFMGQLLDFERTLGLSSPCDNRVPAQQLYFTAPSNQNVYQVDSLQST
1-phosphatidylinositol 4,5-bisphosphate phosphodiesterase gamma-1, sequence (P19174 whole entry): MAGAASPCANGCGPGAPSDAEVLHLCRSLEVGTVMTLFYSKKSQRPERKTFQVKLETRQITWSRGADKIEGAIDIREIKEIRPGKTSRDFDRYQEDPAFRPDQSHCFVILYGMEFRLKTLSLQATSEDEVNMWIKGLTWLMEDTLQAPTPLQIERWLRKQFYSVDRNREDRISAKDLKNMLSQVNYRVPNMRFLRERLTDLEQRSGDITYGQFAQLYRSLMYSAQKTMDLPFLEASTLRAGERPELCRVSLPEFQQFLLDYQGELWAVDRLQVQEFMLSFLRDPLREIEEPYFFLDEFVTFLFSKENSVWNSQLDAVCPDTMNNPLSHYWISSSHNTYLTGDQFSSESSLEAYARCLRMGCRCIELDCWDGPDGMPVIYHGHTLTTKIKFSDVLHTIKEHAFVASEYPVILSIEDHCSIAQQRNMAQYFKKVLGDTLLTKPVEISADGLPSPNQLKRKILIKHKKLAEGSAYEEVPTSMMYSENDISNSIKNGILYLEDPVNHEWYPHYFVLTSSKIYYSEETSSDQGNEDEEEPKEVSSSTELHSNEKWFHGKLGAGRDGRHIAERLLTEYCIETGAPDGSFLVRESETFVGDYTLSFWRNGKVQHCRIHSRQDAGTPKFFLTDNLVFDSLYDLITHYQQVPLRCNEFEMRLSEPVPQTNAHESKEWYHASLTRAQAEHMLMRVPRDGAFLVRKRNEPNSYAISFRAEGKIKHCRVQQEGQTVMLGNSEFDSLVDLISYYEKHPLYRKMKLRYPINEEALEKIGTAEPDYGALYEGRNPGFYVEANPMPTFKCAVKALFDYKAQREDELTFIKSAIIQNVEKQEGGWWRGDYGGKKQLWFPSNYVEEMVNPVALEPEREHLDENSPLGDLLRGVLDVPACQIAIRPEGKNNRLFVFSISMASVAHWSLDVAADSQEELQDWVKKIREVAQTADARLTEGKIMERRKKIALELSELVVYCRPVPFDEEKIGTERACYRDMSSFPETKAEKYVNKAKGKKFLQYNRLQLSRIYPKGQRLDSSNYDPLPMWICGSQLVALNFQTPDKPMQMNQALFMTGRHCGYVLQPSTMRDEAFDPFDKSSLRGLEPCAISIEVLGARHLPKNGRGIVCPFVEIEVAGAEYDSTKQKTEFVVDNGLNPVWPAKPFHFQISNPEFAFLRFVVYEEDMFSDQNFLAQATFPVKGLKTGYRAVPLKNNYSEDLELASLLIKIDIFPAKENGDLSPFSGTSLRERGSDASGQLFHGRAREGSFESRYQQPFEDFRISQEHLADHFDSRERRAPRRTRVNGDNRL
Calcium/calmodulin-dependent protein kinase type II subunit beta, sequence (Q13554 whole entry): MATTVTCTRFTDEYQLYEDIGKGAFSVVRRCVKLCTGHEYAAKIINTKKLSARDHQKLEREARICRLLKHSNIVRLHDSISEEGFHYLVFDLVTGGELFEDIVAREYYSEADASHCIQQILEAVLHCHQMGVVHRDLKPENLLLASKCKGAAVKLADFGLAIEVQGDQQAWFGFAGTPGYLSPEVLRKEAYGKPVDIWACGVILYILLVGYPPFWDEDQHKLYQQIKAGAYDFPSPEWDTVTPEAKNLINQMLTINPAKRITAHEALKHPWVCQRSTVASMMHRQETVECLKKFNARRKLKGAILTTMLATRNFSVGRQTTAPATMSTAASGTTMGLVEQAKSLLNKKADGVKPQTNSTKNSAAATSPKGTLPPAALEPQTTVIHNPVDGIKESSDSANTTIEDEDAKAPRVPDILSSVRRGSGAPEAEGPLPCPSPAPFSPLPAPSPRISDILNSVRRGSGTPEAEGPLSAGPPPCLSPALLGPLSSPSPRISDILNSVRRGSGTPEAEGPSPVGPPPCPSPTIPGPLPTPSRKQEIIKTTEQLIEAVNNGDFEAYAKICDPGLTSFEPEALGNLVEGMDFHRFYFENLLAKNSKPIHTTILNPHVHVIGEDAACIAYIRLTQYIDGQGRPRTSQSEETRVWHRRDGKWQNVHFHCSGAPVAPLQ
Mitogen-activated protein kinase 1, sequence (P28482 whole entry): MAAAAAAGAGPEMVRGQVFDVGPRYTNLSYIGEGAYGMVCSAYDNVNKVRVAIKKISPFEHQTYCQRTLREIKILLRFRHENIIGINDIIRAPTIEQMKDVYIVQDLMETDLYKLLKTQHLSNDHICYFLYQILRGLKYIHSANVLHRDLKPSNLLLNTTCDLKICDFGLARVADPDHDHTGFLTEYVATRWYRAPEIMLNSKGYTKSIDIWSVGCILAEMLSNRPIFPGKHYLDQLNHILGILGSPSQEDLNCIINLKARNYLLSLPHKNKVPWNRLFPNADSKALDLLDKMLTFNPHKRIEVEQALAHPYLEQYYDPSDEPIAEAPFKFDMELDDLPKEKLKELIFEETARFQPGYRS
Dual specificity protein phosphatase 3, sequence (P51452 whole entry): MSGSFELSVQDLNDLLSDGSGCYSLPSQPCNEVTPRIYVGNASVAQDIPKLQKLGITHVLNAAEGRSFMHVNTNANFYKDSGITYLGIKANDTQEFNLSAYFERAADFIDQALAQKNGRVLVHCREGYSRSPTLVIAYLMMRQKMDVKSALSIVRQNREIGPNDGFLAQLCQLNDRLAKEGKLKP

CCCc1nc2c(=O)n(C)c(=O)nc-2n(C)n1
AC50 [1]: 2.71 µM (active)
IC50 [2]: 0.161 µM (active)
IC50 [3]: 5.55 µM (active)
IC50 [4]: > 1.51 µM (active)
AC50 [5]: 0.0636 µM (active)
IC50 [6]: < 1.23 µM (not active)

CC(=O)c1ccc(NC2=C(N3CCOCC3)C(=O)c3ccccc3C2=O)cc1
IC50 [7]: 18 µM (active)
IC50 [2]: > 128 µM (inactive)

COc1cc2ncn(-c3cc(OCc4ccccc4C(F)(F)F)c(C(N)=O)s3)c2cc1OC [GW843682X]
Ki [8]: > 10 µM (inactive)
Ki [9]: > 5.01 µM (inactive)
Ki [10]: 0.0126 µM (active)
Ki [11]: > 6.31 µM (inactive)
Ki [12]: > 10 µM (inactive)
Ki [13]: > 7.94 µM (inactive)
Ki [14]: 7.94 µM (active)
Ki [15]: 0.398 µM (active)
Ki [16]: > 5.01 µM (inactive)
Ki [17]: > 0.794 µM (inactive)
Ki [18]: > 7.94 µM (inactive)
Ki [19]: > 7.94 µM (inactive)
Ki [20]: > 7.94 µM (inactive)
Ki [21]: > 6.31 µM (inactive)
